According to patent US12582641B2, “Sulfur-containing compound based on glutarimide skeleton and application thereof” (SHANGHAITECH UNIVERSITY, priority 2019, dated 2026):

Key:
[1] = system: Mantle cell lymphoma Mino; test: Proliferation inhibition (IC50) in lymphoma cell line Mino, cell viability assay; type: cell-based; settings: Mino cells; for IC50: 72 h, WST reagent
Description: (§1) We tested the anti-proliferation activities of the compounds of the present invention in ALCL cell line SR and Mantle cell lymphoma Mino (which overexpressed IKZF1/3, but were not sensitive to immunomodulatory drugs) through a dose-dependent manner. […] The experiment was repeated more than three times.

[2] = system: MM.1S cells; test: Proliferation inhibition (IC50) in MM.1S cells, cell viability assay; settings: Homo sapiens, MM1.S, 72 h, read-out: IC50 (nM), proliferation inhibitory activity of MM.1S cells (half inhibitory concentration)
Description: MM.1S (B lymphoblast) was purchased from ATCC. Complete medium was RPMI1640 supplemented with 10% FBS and 1% Penicillin-Streptomycin. The cells used were identified as correct cells by STR cells, and were negative for mycoplasma through routine inspections.
IC50 values of the compounds of the present disclosure were measured using Cell Titer Blue, Cell Titer GLO, or WST reagent from Promega Company. Assay details are as follows: Cells were seeded in 100 μL RPMI1640 complete medium containing serum at a density of 15,000 cells/well. After 24 h, the inoculated cells were treated with diluted commercial inhibitor and the compounds of the present disclosure to be tested after serial dilution. After the cells were treated with the compounds of the present disclosure to be tested for 72 h, cell viability was determined after adding the cell viability detection kit listed above according to the reagent operating instructions. The negative control was DMSO, and the positive control was a commercial inhibitor, both of which were used to treat the cells through the same method as that of the compounds of the present disclosure. The growth inhibition of the compounds of the present disclosure on cells was plotted by Prism Graphpad software, and the IC50 values of the compounds of the present disclosure were calculated therefrom.
We tested the activities of the compounds of the present invention in MM.1S cell (which overexpressed IKZF1/3 and is highly sensitive to immunomodulatory drugs) through a dose-dependent manner. The cells were treated with the compounds of the present invention at 10 different successively decreasing concentrations (starting at the highest concentration of 10 μM; 5-fold serial dilutions) for 72 h, and then the cell viability determination was performed in accordance with CCK-8 reagent operating instructions. The experiment was repeated more than three times.

[3] = system: ALCL cell line SR; test: Proliferation inhibition (IC50) in lymphoma cell line SR, cell viability assay; type: cell-based; settings: 72 h, SR cells, WST reagent
Description: as §1

O=C1CCC(N2Cc3c(SCc4ccc(CCNC56CC7CC(CC(C7)C5)C6)cc4)cccc3C2=O)C(=O)N1 (stereo not shown) [SIAIS287128, 3-(4-((4-(2-(adamantan-1-ylamino)ethyl)benzyl)thio)-1-oxoisoindolin-2-yl)piperidine-2,6-dione]
IC50 ([1]; Homo sapiens, MINO): ~0.29 nM | IC50 [1]: 0.289 nM | IC50 times lower than Pomalidomide ([1]; versus pomalidomide IC50 48 nM): 165 times | IC50 [2]: 0.018 ± 0.005 nM | IC50 ([3]; Homo sapiens, SR): ~0.3 nM | IC50 [3]: 0.297 nM

O=C1CCC(N2Cc3c(SCCCCCCCNC45CC6CC(CC(C6)C4)C5)cccc3C2=O)C(=O)N1 (stereo not shown) [SIAIS1220155, 3-(4-((7-((adamantan-1-yl)amino)heptyl)thio)-1-oxoisoindolin-2-yl)piperidine-2,6-dione]
IC50 ([1]; Homo sapiens, MINO): 0.776 nM | IC50 [2]: 0.02 nM | IC50 ([3]; Homo sapiens, SR): 7.42 nM

O=C1CCC(N2Cc3c(SCc4ccc(CN5CCCCC5)cc4)cccc3C2=O)C(=O)N1 (stereo not shown) [SIAIS1220165, 3-(1-oxo-4-((4-(piperidin-1-ylmethyl)benzyl)thio)isoindolin-2-yl)piperidine-2,6-dione]
IC50 ([1]; Homo sapiens, MINO): 5.83 nM | IC50 [2]: 0.09 nM | IC50 ([3]; Homo sapiens, SR): 1.89 nM

Nc1cccc2c1C(=O)N(C1CCC(=O)NC1=O)C2=O (stereo not shown) [pomalidomide, reference compound]
IC50 ([1]; Homo sapiens, MINO): 48 nM | IC50 [1]: 48 nM | IC50 [2]: 9.4 ± 1.3 nM

O=C1CCC(N2Cc3cc(SCCCCCCCNC45CC6CC(CC(C6)C4)C5)ccc3C2=O)C(=O)N1 (stereo not shown) [SIAIS271167, 3-(5-((7-((adamantan-1-yl)amino)heptyl)thio)-1-oxoisoindolin-2-yl)piperidine-2,6-dione]
IC50 [2]: 164 nM

O=C1CCC(N2Cc3c(SCCCCCCCCN4CCC(N5CCNCC5)CC4)cccc3C2=O)C(=O)N1 (stereo not shown) [SIAIS1220019, 3-(1-oxo-4-((8-(4-(piperazin-1-yl)piperidin-1-yl)octyl)thio)isoindolin-2-yl)piperidine-2,6-dione]
IC50 [2]: 2.08 nM

O=C1CCC(N2Cc3c(SCc4ccc(CCCNC5CCCCC5)cc4)cccc3C2=O)C(=O)N1 (stereo not shown) [SIAIS1227045, 3-(4-((4-(3-(cyclohexylamino)propyl)benzyl)thio)-1-oxoisoindolin-2-yl)piperidine-2,6-dione]
IC50 [2]: 0.06 ± 0.01 nM

O=C1CCC(N2Cc3c(SCc4ccc(CN5CCCCCC5)o4)cccc3C2=O)C(=O)N1 (stereo not shown) [SIAIS313135, 3-(4-(((5-(azepan-1-ylmethyl)furan-2-yl)methyl)thio)-1-oxoisoindolin-2-yl)piperidine-2,6-dione]
IC50 [2]: 2.62 ± 0.94 nM

O=C1CCC(N2Cc3c(SCCCCCCCCCSCCCC(F)(F)C(F)(F)F)cccc3C2=O)C(=O)N1 (stereo not shown) [SIAIS1220131, 3-(1-oxo-4-((9-((4,4,5,5,5-pentafluoropentyl)thio)nonyl)thio)isoindolin-2-yl)piperidine-2,6-dione]
IC50 [2]: 9.71 nM

O=C1CCC(N2Cc3c(SCc4cccc(CN5CCCCC5)c4)cccc3C2=O)C(=O)N1 (stereo not shown) [SIAIS1227131, 3-(1-oxo-4-((3-(piperidin-1-ylmethyl)benzyl)thio)isoindolin-2-yl)piperidine-2,6-dione]
IC50 [2]: 0.89 ± 0.22 nM

O=C1CCC(N2Cc3c(SCc4csc(CN5CCOCC5)n4)cccc3C2=O)C(=O)N1 (stereo not shown) [SIAIS313163, 3-(4-(((2-(morpholinomethyl)thiazol-4-yl)methyl)thio)-1-oxoisoindolin-2-yl)piperidine-2,6-dione]
IC50 [2]: 9.38 ± 1.37 nM

O=C1CCC(N2Cc3c(SCCCCCCCNC4CC4)cccc3C2=O)C(=O)N1 (stereo not shown) [SIAIS1222105, 3-(4-((7-(cyclopropylamino)heptyl)thio)-1-oxoisoindolin-2-yl)piperidine-2,6-dione]
IC50 [2]: 0.181 nM

O=C1CCC(N2Cc3c(SCCCCCCNCC4CCCCC4)cccc3C2=O)C(=O)N1 (stereo not shown) [SIAIS1222147, 3-(4-((6-((cyclohexylmethyl)amino)hexyl)thio)-1-oxoisoindolin-2-yl)piperidine-2,6-dione]
IC50 [2]: 0.083 nM

CCN(CC)CCCCCCCSc1cccc2c1CN(C1CCC(=O)NC1=O)C2=O (stereo not shown) [SIAIS1220033, 3-(4-((7-(diethylamino)heptyl)thio)-1-oxoisoindolin-2-yl)piperidine-2,6-dione]
IC50 [2]: 0.23 ± 0.08 nM

O=C1CCC(N2Cc3c(SCc4ccc(CNC56CC(C5)C6)cc4)cccc3C2=O)C(=O)N1 (stereo not shown) [SIAIS1222161, 3-(4-((4-((bicyclo[1.1.1]pentan-1-ylamino)methyl)benzyl)thio)-1-oxoisoindolin-2-yl)piperidine-2,6-dione]
IC50 [2]: 0.035 nM

O=C1CCC(N2Cc3c(SCCCCCCCCN4CCN(CCCCCCCCSc5cccc6c5CN(C5CCC(=O)NC5=O)C6=O)CC4)cccc3C2=O)C(=O)N1 (stereo not shown) [SIAIS1220061, 3,3′-(((piperazine-1,4-diylbis(octane-8,1-diyl))bis(sulfanediyl))bis(1-oxoisoindoline-4,2-diyl))bis(piperidine-2,6-dione)]
IC50 [2]: 0.49 nM

CC1CC(C)CN(Cc2csc(CSc3cccc4c3CN(C3CCC(=O)NC3=O)C4=O)n2)C1 (stereo not shown) [SIAIS313186, 3-(4-(((4-((3,5-dimethylpiperidin-1-yl)methyl)thiazol-2-yl)methyl)thio)-1-oxoisoindolin-2-yl)piperidine-2,6-dione]
IC50 [2]: 1.63 ± 0.61 nM
